Results taken from BigSolDB 2.1.

Settings: in water

N[C@@H](CCC(=O)N[C@@H](CS)C(=O)NCC(=O)O)C(=O)O
Settings	solubility (mole fraction)
278.15 K	0.00427
283.15 K	0.00519
288.15 K	0.00659
293.15 K	0.00792
298.15 K	0.00936
303.15 K	0.0115
308.15 K	0.0139
313.15 K	0.0169
318.15 K	0.0202
